Assay results from patent US20250197864A1, “LNCRNA TRANSCRIPTS IN MELANOMAGENESIS” (The Regents of the University of California, priority 2021, published 2025).

What was measured:
MM415 melanoma cell line = assay: Cell viability assay (ATP quantitation); type: cell-based, human; conditions: 50 nM, 5 days (120 hrs), vs non-targeting control
Method: (§1) EsiRNA, siRNA and ASO GapmeRs were transfected in a final concentration of 50 nM unless mentioned otherwise and the transfection reagent Lipofectamine 3000 (2 ul/ml) was added according to the manufacturer's instructions.
(§2) Dependent on cell doubling time, 0.7-2×10^^3 cells were seeded in 96 well plates. 1 day after seeding cells were incubated in media with oligonucleotide concentration and/or MEKi and transfection reagent. 3 (synergy experiments) or 5 (solely ASO) days after transfection Total luminescence was measured on the SynergyHT plate reader (BioTek) using Gen5 software.

D04 melanoma cell line = assay: Cell viability assay (ATP quantitation); type: cell-based, human; conditions: 50 nM, 5 days (120 hrs), vs non-targeting control
Method: as §1, §2

melanoma cell lines = assay: Cell viability assay (ATP quantitation), melanoma panel; type: cell-based, human; conditions: 50 nM oligonucleotide, 72 hours, vs non-targeting pooled siRNA
Description: Human melanoma cell line VMM39 was purchased from American Type Culture Collection (ATCC). Human melanoma cell lines D04, MM415, WM1366, WM3629, WM3211, Sk-Mel-2 and Sk-Mel-28 were a generous gift from Boris Bastian at the University of California, San Francisco. Primary human melanoma cell line Hs852.T was purchased from the Cell Culture Core Facility (CCCF) at the University of California, San Francisco. Primary human melanoma cell line AV5 was obtained from metastasis of a melanoma patient. All experimental protocols were approved by UCSF Human Research Protection Program Institutional Review Board (IRB #12-0948), all patients signed informed consent, and methods were carried out in accordance with relevant guidelines and regulations. Resistant cell lines DO4RM, MM415RM, Sk-Mel-2RM and WM3629RM were established as previously described. [Sanlorenzo, M. et al., The lincRNA MIRAT binds to IQGAPI and modulates the MAPK pathway in NRAS mutant melanoma. Sci Rep 8, 10902 (2018).] Primary human melanocytic cell lines (PHM) from infant foreskin of five healthy donors were available in our cell repository and pooled. […]
Dependent on cell doubling time, 0.7-2×10^^3 cells were seeded in 96 well plates. […] 3 (synergy experiments) or 5 (solely ASO) days after transfection Total luminescence was measured on the SynergyHT plate reader (BioTek) using Gen5 software.

[1] = tested on: AC004540.4 (TRASH) in MM415 cells; assay: MEK-inhibitor-induced upregulation, RT-qPCR; type: cell-based, human; conditions: 72 hours, vs DMSO
Method: (§3) TRIzol, Phenol:chloroform:isoamyl alcohol (125:24:1) or NucleoSpin RNA kit (TaKaRa) was used for extracting Total RNA from cells and tissues according to the manufacturer's instructions. Total RNA was quantified by NanoDrop ND-1000 (Thermo Scientific) or Quibit 4 (Thermo Fisher). 50 ng or RNA was reverse transcribed using the cDNA synthesis and gDNA removal QuantiTect Reverse Transcription Kit. Real time PCR was performed using the iTaq Universal SYBR Green Supermix, 10 ng (20 ng for RIP Assay) of cDNA and on a QuantStudio™ 5 Real-Time PCR System or a 7500 fast real time PCR system. Relative gene expression was calculated using the comparative Ct method, normalized to GAPDH or β-actin. Primer sequences are listed in Supplementary Table 1.
(§4) Cells were either treated with trametinib (MEKi) or DMSO (control). Treatment period was 72 hours. CT-values were normalized to GAPDH, error bars represent standard deviation. All experiments were performed in triplicates (n=3/group). (FIG. 5b)

[2] = tested on: AC004540.4 (TRASH) in D04 cells; assay: MEK-inhibitor-induced upregulation, RT-qPCR; type: cell-based, human; conditions: 72 hours, vs DMSO, normalized to GAPDH
Method: as §3, §4

[3] = tested on: Sk-Mel-2-RM trametinib resistant melanoma cell line; assay: Cell viability assay (ATP quantitation); type: cell-based; conditions: 50 nM, 5 days, vs non-targeting control
Description: (§5) Human melanoma cell line VMM39 was purchased from American Type Culture Collection (ATCC). Human melanoma cell lines D04, MM415, WM1366, WM3629, WM3211, Sk-Mel-2 and Sk-Mel-28 were a generous gift from Boris Bastian at the University of California, San Francisco. Primary human melanoma cell line Hs852.T was purchased from the Cell Culture Core Facility (CCCF) at the University of California, San Francisco. Primary human melanoma cell line AV5 was obtained from metastasis of a melanoma patient. All experimental protocols were approved by UCSF Human Research Protection Program Institutional Review Board (IRB #12-0948), all patients signed informed consent, and methods were carried out in accordance with relevant guidelines and regulations. Resistant cell lines DO4RM, MM415RM, Sk-Mel-2RM and WM3629RM were established as previously described. [Sanlorenzo, M. et al., The lincRNA MIRAT binds to IQGAPI and modulates the MAPK pathway in NRAS mutant melanoma. Sci Rep 8, 10902 (2018).] Primary human melanocytic cell lines (PHM) from infant foreskin of five healthy donors were available in our cell repository and pooled. Melanoma cell lines were maintained in RPMI 1640 media supplemented with 10% (vol/vol) heat inactivated fetal bovine serum. Melanocytes were maintained in M254 medium with HMGS supplements (1× final solution). All cell lines were incubated at 37° C. under 5% CO2.
as §1, §2

[4] = tested on: D04RM trametinib resistant melanoma cell line; assay: Cell viability assay (ATP quantitation); type: cell-based; conditions: 50 nM, 5 days, vs non-targeting control
Description: as §5, §1, §2

[5] = tested on: MM415RM trametinib resistant melanoma cell line; assay: Cell viability assay (ATP quantitation); type: cell-based; conditions: 50 nM, 5 days, vs non-targeting control
Description: as §5, §1, §2

[6] = tested on: WM3629RM trametinib resistant melanoma cell line; assay: Cell viability assay (ATP quantitation); type: cell-based; conditions: 50 nM, 5 days, vs non-targeting control
Description: as §5, §1, §2

[7] = tested on: U87-MG Glioblastoma cell line; assay: Cell viability assay (ATP quantitation); type: cell-based; conditions: 50 nM, 5 days, vs non-targeting control
Method: as §1, §2

[8] = tested on: H1299 lung cancer cell line; assay: Cell viability assay (ATP quantitation); type: cell-based; conditions: 50 nM, 5 days, vs non-targeting control
Method: as §1, §2

[9] = tested on: WM3060 melanoma cell line; assay: Cell viability assay (ATP quantitation); type: cell-based; conditions: 50 nM, 5 days, vs non-targeting control
Method: as §1, §2

[10] = tested on: U20S osteosarcoma cell line; assay: Cell viability assay (ATP quantitation); type: cell-based; conditions: 50 nM, 5 days, vs non-targeting control
Method: as §1, §2

A375 melanoma cell line = assay: Cell viability assay (ATP quantitation); type: cell-based; conditions: 50 nM, 5 days, vs non-targeting control
Method: as §1, §2

[11] = tested on: SW480 colon carcinoma cell line; assay: Cell viability assay (ATP quantitation); type: cell-based; conditions: 50 nM, 5 days, vs non-targeting control
Method: as §1, §2

AV4 melanoma cell line = assay: Cell viability assay (ATP quantitation); type: cell-based; conditions: 50 nM, 5 days, vs non-targeting control
Method: as §1, §2

[12] = tested on: Sk-N-AS Neuroblastoma cell line; assay: Cell viability assay (ATP quantitation); type: cell-based; conditions: 50 nM, 5 days, vs non-targeting control
Method: as §1, §2

[13] = tested on: SW1271 lung cancer cell line; assay: Cell viability assay (ATP quantitation); type: cell-based; conditions: 50 nM, 5 days, vs non-targeting control
Method: as §1, §2

[14] = tested on: Sk-Mel-5 melanoma cell line; assay: Cell viability assay (ATP quantitation); type: cell-based; conditions: 50 nM, 5 days, vs non-targeting control
Method: as §1, §2

MM485 melanoma cell line = assay: Cell viability assay (ATP quantitation); type: cell-based; conditions: 50 nM, 5 days, vs non-targeting control
Method: as §1, §2

[15] = tested on: HCT116 colon carcinoma cell line; assay: Cell viability assay (ATP quantitation); type: cell-based; conditions: 50 nM, 5 days, vs non-targeting control
Method: as §1, §2

[16] = tested on: T98G Glioblastoma cell line; assay: Cell viability assay (ATP quantitation); type: cell-based; conditions: 50 nM, 5 days, vs non-targeting control
Method: as §1, §2

[17] = tested on: U138-MG Glioblastoma cell line; assay: Cell viability assay (ATP quantitation); type: cell-based; conditions: 50 nM, 5 days, vs non-targeting control
Method: as §1, §2

[18] = tested on: H929 multiple myeloma cell line; assay: Cell viability assay (ATP quantitation); type: cell-based; conditions: 50 nM, 5 days, vs non-targeting control
Method: as §1, §2

[19] = tested on: H2228 lung cancer cell line; assay: Cell viability assay (ATP quantitation); type: cell-based; conditions: 50 nM, 5 days, vs non-targeting control
Method: as §1, §2

[20] = tested on: Hs940.T melanoma cell line; assay: Cell viability assay (ATP quantitation); type: cell-based; conditions: 50 nM, 5 days, vs non-targeting control
Method: as §1, §2

[21] = tested on: A-172 Glioblastoma cell line; assay: Cell viability assay (ATP quantitation); type: cell-based; conditions: 50 nM, 5 days, vs non-targeting control
Method: as §1, §2

[22] = tested on: H82 lung cancer cell line; assay: Cell viability assay (ATP quantitation); type: cell-based; conditions: 50 nM, 5 days, vs non-targeting control
Method: as §1, §2

VMM39 melanoma cell line = assay: Cell viability assay (ATP quantitation); type: cell-based, human; conditions: 50 nM, 5 days (120 hrs), vs non-targeting control
Method: as §1, §2

[23] = tested on: WM3211 melanoma cell line; assay: Cell viability assay (ATP quantitation); type: cell-based, human; conditions: 50 nM, 5 days (120 hrs), vs non-targeting control
Method: as §1, §2

[24] = tested on: Sk-Mel-28 melanoma cell line; assay: Cell viability assay (ATP quantitation); type: cell-based, human; conditions: 50 nM, 5 days (120 hrs), vs non-targeting control
Method: as §1, §2

[25] = tested on: Hs852.T primary melanoma cell line; assay: Cell viability assay (ATP quantitation); type: cell-based, human; conditions: 50 nM, 5 days (120 hrs), vs non-targeting control
Method: as §1, §2

[26] = tested on: WM1366 melanoma cell line; assay: Cell viability assay (ATP quantitation); type: cell-based, human; conditions: 50 nM, 5 days (120 hrs), vs non-targeting control
Method: as §1, §2

[27] = tested on: WM3629 melanoma cell line; assay: Cell viability assay (ATP quantitation); type: cell-based, human; conditions: 50 nM, 5 days (120 hrs), vs non-targeting control
Method: as §1, §2

[28] = tested on: AV5 primary melanoma cell line; assay: Cell viability assay (ATP quantitation); type: cell-based, human; conditions: 50 nM, 5 days (120 hrs), vs non-targeting control
Method: as §1, §2

[29] = tested on: Sk-Mel-2 melanoma cell line; assay: Cell viability assay (ATP quantitation); type: cell-based, human; conditions: 50 nM, 5 days (120 hrs), vs non-targeting control
Method: as §1, §2

Compound: 5′-ACAAAGAGAGACAGGAAAUUU-3′ (chain 2 AUUUCCUGUCUCUCUUUGUUU; listed as RNA, chemistry not given here) [SEQ ID NO:45]
- cell viability decrease (MM415 melanoma cell line): significant cell viability decrease
- cell viability decrease (D04 melanoma cell line): significant cell viability decrease
- cell viability decrease (RNAi screening) (melanoma cell lines): significant cell viability decrease

Compound: CC(=O)Nc1cccc(-n2c(=O)n(C3CC3)c(=O)c3c(Nc4ccc(I)cc4F)n(C)c(=O)c(C)c32)c1 [trametinib]
- increase of AC004540.4 (TRASH)-expression ([1]; 20 nM MEKi): 0.31 fold
- increase of AC004540.4 (TRASH)-expression ([1]; second MEKi concentration (not given)): 0.36 fold
- AC004540.4 (TRASH) upregulation ([2]; 20 nM MEKi): 3.2 fold
- AC004540.4 (TRASH) enrichment ([2]; 40 nM MEKi): 5.4 fold

Compound: AAGGAGGGTAAACGCT (chemistry not given here) [SEQ ID NO: 13, Antisense oligonucleotide targeting BX470102.3-008]
- cell viability decrease [3]: significant cell viability decrease
- cell viability decrease [4]: significant cell viability decrease
- cell viability decrease [5]: significant cell viability decrease
- cell viability decrease [6]: significant cell viability decrease
- cell viability decrease [7]: significant cell viability decrease
- cell viability decrease [8]: significant cell viability decrease
- cell viability decrease [9]: significant cell viability decrease
- cell viability decrease [10]: significant cell viability decrease
- cell viability decrease (A375 melanoma cell line): significant cell viability decrease
- cell viability decrease [11]: significant cell viability decrease
- cell viability decrease (AV4 melanoma cell line): significant cell viability decrease
- cell viability decrease [12]: significant cell viability decrease
- cell viability decrease [13]: significant cell viability decrease
- cell viability decrease [14]: significant cell viability decrease
- cell viability decrease (MM485 melanoma cell line): significant cell viability decrease
- cell viability decrease [15]: significant cell viability decrease
- cell viability decrease [16]: significant cell viability decrease
- cell viability decrease [17]: significant cell viability decrease
- cell viability decrease [18]: significant cell viability decrease
- cell viability decrease [19]: significant cell viability decrease
- cell viability decrease [20]: significant cell viability decrease
- cell viability decrease [21]: significant cell viability decrease
- cell viability decrease [22]: significant cell viability decrease
- cell viability decrease (VMM39 melanoma cell line): significant cell viability decrease
- cell viability decrease [23]: significant cell viability decrease
- cell viability decrease [24]: significant cell viability decrease
- cell viability decrease [25]: significant cell viability decrease
- cell viability decrease [26]: significant cell viability decrease
- cell viability decrease (MM415 melanoma cell line): significant cell viability decrease
- cell viability decrease [27]: significant cell viability decrease
- cell viability decrease [28]: significant cell viability decrease
- cell viability decrease [29]: significant cell viability decrease
- cell viability decrease (D04 melanoma cell line): significant cell viability decrease
